For this data set the following is noted: rat, in vivo. As for the experimental part: Non self-emulsifying tocotrienol oily suspension was prepared by mixing tocotrienols rich fraction (TRF) and palm olein at a ratio of 1:1. The total tocotrienol administered per rat was equivalent to 10 mg/kg body weight. The single dose of ketoconazole (suspension in water) was administered at a dose of 32 mg/kg body weight.
The rats were fasted overnight for at least 12 hours before the study. During Phase 1, the rats in Group 1 were given only the tocotrienol oily suspension while Group 2 were given a single dose of ketoconazole half an hour prior to administration of tocotrienol. Phase 2 was carried out after 1 week of wash-out period. Blood samples were taken from the tail vein according to the following predetermined sampling interval. The blood levels of individual tocotrienol isomers at each time point was analysed using HPLC assay.

With `CC(=O)N1CCN(c2ccc(OCC3COC(Cn4ccnc4)(c4ccc(Cl)cc4Cl)O3)cc2)CC1` (stereo not shown) [Ketoconazole, ketoconazole], the “Increase in bioavailability compared with Control, Alpha-tocotrienol” value was 2.1-fold; the “Increase in bioavailability compared with Control, Delta-tocotrienol” value is given as 2.6-fold; the “Increase in bioavailability compared with Control, Gamma-tocotrienol” value was 3.0-fold. For the same compound, the “Enhancement of bioavailability of tocotrienols compared to without ketoconazole” value (po) is recorded as 2-3 folds.
